Test: High temperature stability study of compounds (60° C.)
Type: physicochemical
Conditions: in the dark, Day 0
Protocol: Test protocol: the compounds prepared in the present disclosure were placed in a colorless and transparent vial, placed in the dark at a high temperature (60° C.), and were sampled for day 0, day 5 and day 10, respectively, and the purity of the compounds and the change of the related substance (ketorolac) were determined.

Total main peak purity (%)	Structure (SMILES)
92.45%	CCC(OC(C)=O)OC(=O)C1CCn2c(C(=O)c3ccccc3)ccc21 (centres unmarked) [N3]
96.21%	CCC(=O)OC(OC(=O)C1CCn2c(C(=O)c3ccccc3)ccc21)C(C)C (centres unmarked) [N9]
97.46%	CC(=O)OC(OC(=O)C1CCn2c(C(=O)c3ccccc3)ccc21)C(C)C (centres unmarked) [N5]

The remaining lines, values behind:

Structure (SMILES)	Total main peak purity (%)
CC(C)OC(=O)OC(OC(=O)C1CCn2c(C(=O)c3ccccc3)ccc21)C(C)C (centres unmarked) [N19]	96.30%
CC(OC(=O)C1CCn2c(C(=O)c3ccccc3)ccc21)OC(=O)C(C)(C)C (centres unmarked) [N7]	90.83%

Same assay, conditions: in the dark, Day 5

Total main peak purity (%)	Structure (SMILES)
90.83%	CCC(OC(C)=O)OC(=O)C1CCn2c(C(=O)c3ccccc3)ccc21 (centres unmarked) [N3]
95.58%	CCC(=O)OC(OC(=O)C1CCn2c(C(=O)c3ccccc3)ccc21)C(C)C (centres unmarked) [N9]
97.62%	CC(=O)OC(OC(=O)C1CCn2c(C(=O)c3ccccc3)ccc21)C(C)C (centres unmarked) [N5]

The next lines start with the compound.

Structure (SMILES)	Total main peak purity (%)
CC(C)OC(=O)OC(OC(=O)C1CCn2c(C(=O)c3ccccc3)ccc21)C(C)C (centres unmarked) [N19]	94.61%
CC(OC(=O)C1CCn2c(C(=O)c3ccccc3)ccc21)OC(=O)C(C)(C)C (centres unmarked) [N7]	88.66%

Same assay, conditions: in the dark, Day 10

Total main peak purity (%)	Structure (SMILES)
90.36%	CCC(OC(C)=O)OC(=O)C1CCn2c(C(=O)c3ccccc3)ccc21 (centres unmarked) [N3]
95.21%	CCC(=O)OC(OC(=O)C1CCn2c(C(=O)c3ccccc3)ccc21)C(C)C (centres unmarked) [N9]
97.37%	CC(=O)OC(OC(=O)C1CCn2c(C(=O)c3ccccc3)ccc21)C(C)C (centres unmarked) [N5]

The next lines start with the compound.

Structure (SMILES)	Total main peak purity (%)
CC(C)OC(=O)OC(OC(=O)C1CCn2c(C(=O)c3ccccc3)ccc21)C(C)C (centres unmarked) [N19]	94.41%
CC(OC(=O)C1CCn2c(C(=O)c3ccccc3)ccc21)OC(=O)C(C)(C)C (centres unmarked) [N7]	88.59%

Same assay, conditions: related substance, in the dark, Day 0

Ketorolac (%)	Structure (SMILES)
0.11%	CCC(OC(C)=O)OC(=O)C1CCn2c(C(=O)c3ccccc3)ccc21 (centres unmarked) [N3]
0.29%	CCC(=O)OC(OC(=O)C1CCn2c(C(=O)c3ccccc3)ccc21)C(C)C (centres unmarked) [N9]
0.14%	CC(=O)OC(OC(=O)C1CCn2c(C(=O)c3ccccc3)ccc21)C(C)C (centres unmarked) [N5]

The next lines start with the compound.

Structure (SMILES)	Ketorolac (%)
CC(C)OC(=O)OC(OC(=O)C1CCn2c(C(=O)c3ccccc3)ccc21)C(C)C (centres unmarked) [N19]	0.07%
CC(OC(=O)C1CCn2c(C(=O)c3ccccc3)ccc21)OC(=O)C(C)(C)C (centres unmarked) [N7]	0.18%

Same assay, conditions: related substance, in the dark, Day 5

Ketorolac (%)	Structure (SMILES)
0.15%	CCC(OC(C)=O)OC(=O)C1CCn2c(C(=O)c3ccccc3)ccc21 (centres unmarked) [N3]
0.31%	CCC(=O)OC(OC(=O)C1CCn2c(C(=O)c3ccccc3)ccc21)C(C)C (centres unmarked) [N9]
0.15%	CC(=O)OC(OC(=O)C1CCn2c(C(=O)c3ccccc3)ccc21)C(C)C (centres unmarked) [N5]

Second part, the compound before the results:

Structure (SMILES)	Ketorolac (%)
CC(C)OC(=O)OC(OC(=O)C1CCn2c(C(=O)c3ccccc3)ccc21)C(C)C (centres unmarked) [N19]	0.09%
CC(OC(=O)C1CCn2c(C(=O)c3ccccc3)ccc21)OC(=O)C(C)(C)C (centres unmarked) [N7]	0.25%

Same assay, conditions: related substance, in the dark, Day 10

Ketorolac (%)	Structure (SMILES)
0.17%	CCC(OC(C)=O)OC(=O)C1CCn2c(C(=O)c3ccccc3)ccc21 (centres unmarked) [N3]
0.30%	CCC(=O)OC(OC(=O)C1CCn2c(C(=O)c3ccccc3)ccc21)C(C)C (centres unmarked) [N9]
0.17%	CC(=O)OC(OC(=O)C1CCn2c(C(=O)c3ccccc3)ccc21)C(C)C (centres unmarked) [N5]

The remaining lines, values behind:

Structure (SMILES)	Ketorolac (%)
CC(C)OC(=O)OC(OC(=O)C1CCn2c(C(=O)c3ccccc3)ccc21)C(C)C (centres unmarked) [N19]	0.12%
CC(OC(=O)C1CCn2c(C(=O)c3ccccc3)ccc21)OC(=O)C(C)(C)C (centres unmarked) [N7]	0.32%

Test: By-product toxicity test (metabolic byproducts in the human body)
Conditions: by the metabolic pathways of the compounds in the human body

Structure (SMILES)	Metabolic by-products in human body
CCC(OC(C)=O)OC(=O)C1CCn2c(C(=O)c3ccccc3)ccc21 (centres unmarked) [N3]	Propionaldehyde and acetic acid
CC(OC(=O)C1CCn2c(C(=O)c3ccccc3)ccc21)OC(=O)C(C)(C)C (centres unmarked) [N7]	Acetaldehyde and pivalic acid
CC(=O)OC(OC(=O)C1CCn2c(C(=O)c3ccccc3)ccc21)C(C)C (centres unmarked) [N5]	Isobutyraldehyde and acetic acid

Same assay, conditions: toxicity of the metabolic by-products in human body

Structure (SMILES)	Toxicity
CCC(OC(C)=O)OC(=O)C1CCn2c(C(=O)c3ccccc3)ccc21 (centres unmarked) [N3]	relatively low
CC(OC(=O)C1CCn2c(C(=O)c3ccccc3)ccc21)OC(=O)C(C)(C)C (centres unmarked) [N7]	Pivalic acid is more toxic

— patent US12649746B2, “Ketorolaco derivative, pharmaceutical composition and preparation method therefor and use thereof” (NANJING HERON PHARMACEUTICAL SCIENCE AND TECHNOLOGY CO., …, priority 2020, dated 2026)
